The source of these data is PMC3951181, “Rosamines Targeting the Cancer Oxidative Phosphorylation Pathway” (PLoS ONE, 2014).

As a reminder, the IC50 is the point on the concentration scale where inhibition reaches its midpoint. Broadly, the GI50 is the concentration that inhibits growth by half.

The subject of one data set is HSC-2 cells. As to the kind of experiment: JC-1 analysis of mitochondrial membrane potential. It counts as cell-based, human. Conditions: for cell population with mitochondrial transmembrane potential loss: 0.1 µM, untreated control about 8% at 8 h. On the procedure:
The mitochondrial membrane potential was measured based on the potential–dependent accumulation of the cationic JC-1 dye which results in a shift of fluorescence emission from green (∼525 nm) to red (∼590 nm) due to the formation of J-aggregates. Therefore, mitochondrial depolarization is indicated by a decrease in the red/green fluorescence intensity ratio. Briefly, cells were collected and suspended in 1 ml warm media at approximately 1×10^6 cell/ml. In a control tube, 1 µl of 50 mM CCCP was added and incubated at 37°C for 5 min. Then, 10 µl of 200 µM JC-1 was added into the cells and incubated at 37°C for 30 min. Cells were washed twice with warm PBS, resuspended in 500 µl of PBS and analyzed on a FACSCalibur flow cytometer using 488 nm excitation with 530/30 nm and 585/42 nm bandpass emission filters.
Meanwhile, the mitochondrial transmembrane potential loss was more prominent in HSC-2 cells treated with 5 at 0.1 µM. Approximately 21% (P<0.05) of the cell population was affected in the first hour and the percentage increased drastically to 34% in 8 h. For the untreated control cells, the population of depolarized cells at 8 h remained at approximately 8%. […] CCCP is an oxidative phosphorylation decoupling agent which acts as a positive control for the experiment.

In another data set the test system is HCT-116 colon carcinoma. Description: MTT cell viability assay, 48 h. It counts as cell-based. Conditions: Homo sapiens, 48 h post-treatment, mean ± SD. On the procedure:
(§1) MCF-7 breast carcinoma and HCT-116 colon carcinoma cell lines were obtained from American Tissue Culture Collection (Virginia, USA) and maintained in RPMI 1640 medium supplemented with 10% FBS. HSC-2 oral cavity human squamous carcinoma cells were obtained from Health Science Research Resources Bank (Japan). HK-1, a previously characterized nasopharyngeal squamous carcinoma cells is a gift by Prof. Wong Y.C. from the University of Hong Kong. Both cell lines were grown in MEM medium supplemented with 10% FBS. For cell viability assay, cells at 4000 cells/well in 80 µl of medium were inoculated in 96-well plates and were allowed to adhere overnight. Cells were then treated with each compound at concentrations ranging from 0.001–10 µM giving the final volume of 100 µl in each well. At the end of incubation period, 15 µl of 5.0 mg/ml MTT in phosphate buffered saline (PBS) was added and incubated for 4 h. Medium and excessive MTT were aspirated and the resulting formazan was solubilized with 100 µl of dimethyl sulfoxide. Absorbance was read at 570 nm with SpectraMax M4 microplate spectrophotometer (Molecular Devices, CA).
(§2) The in vitro antitumor activity of rosamines was assessed using a 48 h endpoint cell viability methylthiazolyldiphenyl-tetrazolium bromide (MTT) assay against a panel of solid human tumor cell lines including breast carcinoma (MCF-7), colon carcinoma (HCT-116), oral squamous cell carcinoma (HSC-2) and nasopharyngeal carcinoma (HK-1). […] Within the halide series, cytotoxicities increase in the following order 4>3>[…] (Cl>Br>I), although not statistically significant (P>0.05).
A general note: Tetrazolium dyes change colour on reduction, which living cells bring about.

The subject of data set [1] is HSC-2 oral cavity human squamous carcinoma cells. As to the kind of experiment: MTT cell viability assay, 48 h. Type of data set: cell-based. Conditions: 48 h post-treatment, mean ± SD. On the procedure: as §1, §2
Data set [2] relates to HK-1 nasopharyngeal squamous carcinoma cells. As to the kind of experiment: MTT cell viability assay, 48 h. It counts as cell-based. The conditions noted are these: Homo sapiens, 48 h post-treatment, mean ± SD. As for the experimental part: as §1, §2
In the next data set the test system is MCF-7 breast carcinoma. As to the kind of experiment: MTT cell viability assay, 48 h. It counts as cell-based. Conditions: Homo sapiens, MCF7, 48 h post-treatment, mean ± SD. As for the experimental part:
as §1, §2

In data set [3] the test system is panel of solid human tumor cell lines (MCF-7, HCT-116, HSC-2, HK-1). Description: MTT cell viability assay, panel of cancer cell lines. Type of data set: cell-based. The conditions noted are these: mean over MCF-7, HCT-116, HSC-2, HK-1. On the procedure:
as §1, §2

A further data set addresses ATP synthase (Mus musculus, UniProt P56480+Q03265). Description: Immunocapture ELISA microplate enzyme activity assay. Conditions: read-out: IC50 ATP synthase activity; mouse liver mitochondria extract; 0.01–10 µM.
Another data set deals with Complex IV (Mus musculus, UniProt P00397+P00405+P00416). The data set is described as above. Conditions: read-out: IC50 Complex IV activity; mouse liver mitochondria extract; 0.01–10 µM.
Another data set concerns the target Complex I. The data set is described as above. It counts as biochemical. Conditions: mouse liver mitochondria extract; 0.01–10 µM.
Data set [4] concerns panel of solid human tumor cell lines (MCF-7, HCT-116, HSC-2, HK-1). Details: method as in PMID 19387338. Conditions: anticancer activity in cellular assays; previous study; cited from earlier work.
Another data set addresses Complex II (Mus musculus, UniProt Q8K2B3+Q9CQA3+Q9CXV1+Q9CZB0). Description: Immunocapture ELISA microplate enzyme activity assay. It counts as biochemical. Conditions: mouse liver mitochondria extract; 0.01–10 µM.
The subject of data set [5] is NCI-60 human tumor cell lines. As to the kind of experiment: NCI-60 screen, sulforhodamine B, whole panel. It counts as cell-based. The conditions noted are these: overall value for the NCI-60 cell lines screen. As for the experimental part: NCI-60 cell panel screening was performed by the NCI/National Institutes of Health developmental therapeutics program (Bethesda, US). This platform allows the determination of growth inhibitory profiles of test compounds on 60 different human cancer cell lines, representing leukemia, melanoma and cancers of the lung, colon, central nervous system, ovary, breast, prostate, and renal subpanel. Sulforhodamine B assay was used to assess the cytotoxicity of test agents in a panel of 60 cell lines. Briefly, the human tumor cell lines of the cancer screening panel were grown in RPMI 1640 medium containing 5% FBS and 2 mM L-glutamine. For a typical screening experiment, cells were inoculated into 96 well microtiter plates in 100 µl at plating densities depending on the doubling time of individual cell lines. After cell inoculation, the microtiter plates are incubated at 37°C, 5% CO2 and 100% relative humidity for 24 h. Following incubation, aliquots of 100 µl of compound at different dilutions were added to the appropriate microtiter wells and were further incubated for 48 h. At the assay end-point, cells were fixed with trichloroacetic acid followed by Sulforhodamine B staining for cellular protein content. Sulforhodamine B absorbance was read at a wavelength of 515 nm as a measurement of cell density.

The nature of data set [6]: Solubility in aqueous media for treatment stock. It counts as physicochemical. Conditions: reconstitution of treatment stock at 10 mM. On the procedure:
Compounds 3, 4 and 6 were synthesized to test if meso-replacement with 4-bromobenzene 3, 4-chlorobenzene 4 or 2-furyl 6 groups would affect the anticancer activity. In addition, the 4-iodobenzene 7 or 2-thiofuran meso substituents 8 and unsymmetrical piperidine/[…] amine substituents were synthesized and investigated. Rosamines 1–4 and 7 were not appreciably water-soluble so they were reconstituted in DMSO at 10 mM as treatment stock.

Complex II, sequence (Q8K2B3 43-664): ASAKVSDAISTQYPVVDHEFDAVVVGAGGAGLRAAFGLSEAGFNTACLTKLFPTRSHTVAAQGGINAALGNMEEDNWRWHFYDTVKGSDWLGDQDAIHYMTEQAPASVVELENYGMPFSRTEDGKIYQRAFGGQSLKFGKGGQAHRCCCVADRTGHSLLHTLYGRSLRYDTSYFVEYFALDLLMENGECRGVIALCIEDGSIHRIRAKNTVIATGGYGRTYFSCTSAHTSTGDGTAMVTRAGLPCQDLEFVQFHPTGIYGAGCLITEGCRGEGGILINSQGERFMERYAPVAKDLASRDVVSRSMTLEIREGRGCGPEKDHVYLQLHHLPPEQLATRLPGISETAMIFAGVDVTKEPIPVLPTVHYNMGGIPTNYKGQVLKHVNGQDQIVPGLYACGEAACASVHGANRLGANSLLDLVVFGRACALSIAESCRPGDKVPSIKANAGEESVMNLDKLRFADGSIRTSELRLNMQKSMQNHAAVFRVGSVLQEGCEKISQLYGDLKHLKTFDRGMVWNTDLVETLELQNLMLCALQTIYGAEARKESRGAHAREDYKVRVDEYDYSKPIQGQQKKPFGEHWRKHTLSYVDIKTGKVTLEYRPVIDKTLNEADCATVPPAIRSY
Complex II, sequence (Q9CQA3 31-282): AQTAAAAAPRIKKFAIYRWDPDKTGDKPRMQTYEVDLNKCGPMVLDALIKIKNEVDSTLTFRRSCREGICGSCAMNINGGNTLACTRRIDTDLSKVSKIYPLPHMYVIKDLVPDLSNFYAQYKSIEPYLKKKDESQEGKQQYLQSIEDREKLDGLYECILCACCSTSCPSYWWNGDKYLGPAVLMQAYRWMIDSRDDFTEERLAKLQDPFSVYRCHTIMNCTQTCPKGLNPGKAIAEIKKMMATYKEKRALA
Complex II, sequence (Q9CZB0 30-169): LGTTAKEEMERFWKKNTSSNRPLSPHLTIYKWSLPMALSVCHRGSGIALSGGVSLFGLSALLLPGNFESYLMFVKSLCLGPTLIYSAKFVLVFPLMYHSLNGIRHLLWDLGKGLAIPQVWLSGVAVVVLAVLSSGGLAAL
Complex II, sequence (Q9CXV1 57-159): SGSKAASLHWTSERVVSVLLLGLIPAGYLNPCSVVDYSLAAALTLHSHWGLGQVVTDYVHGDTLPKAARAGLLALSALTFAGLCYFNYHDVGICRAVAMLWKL
Description for ATP synthase: (§3) Functional mitochondria were isolated from mouse liver by differential centrifugation method [14]. Briefly, a mouse (∼30 g) was starved overnight before sacrificed by cervical dislocation. The liver was harvested promptly and rinsed with ice-cold mitochondria isolation buffer (10 mM Tris-MOPS, 1 mM EGTA/Tris, 0.2 M sucrose, pH 7.4) until blood-free. The liver was then cut into small pieces in a beaker using scissors while keeping in an ice-bath. The buffer was replaced with 5 ml of fresh isolation buffer and the liver was homogenized with a Polytron probe (Ultra-Turrax T8, Ika-Werke, Germany) until smooth. The homogenate was centrifuged at 1000 g for 15 min at 4°C. The pellet was discarded and the supernatant was centrifuged at 12000 g for 15 min at 4°C to pellet the mitochondria. The mitochondria were washed twice by resuspending in 4 volumes of isolation buffer containing 1× protease cocktail inhibitor. The concentration of the mitochondrial protein was determined using the Bradford (Biorad protein assay) method. […]
(§4) In general, plate pre-coated with appropriate immunocapture antibody was incubated with mitochondria extract at recommended concentration to allow immobilization of their respective complexes. Complexes activity was measured by addition of substrates solution mix provided by the kit and compound was added at concentration ranging from 0.01–10 µM in triplicate. […]
Description for Complex IV: as §3, §4

`N#CC(C#N)=NNc1cccc(Cl)c1` [CCCP, Carbonyl cyanide 3-chlorophenylhydrazone, reference compound]: the “cell population with loss of membrane potential” value in the data set on HSC-2 cells (5 µM for 5 min, positive control) was determined as 70%.
As to `c1ccc(-c2c3ccc(=[N+]4CCCCC4)cc-3oc3cc(N4CCCCC4)ccc23)cc1` [Rosamine 1], the IC50 in the data set on HCT-116 colon carcinoma amounted to 600 ± 410 nM; in data set [1], 90 nM; in data set [2] it was 610 ± 70 nM; in the data set with MCF-7 breast carcinoma, 1200 ± 700 nM; in data set [3] it was 630 nM.
Turning to `Ic1ccc(-c2c3ccc(=[N+]4CCCCC4)cc-3oc3cc(N4CCCCC4)ccc23)cc1` [Rosamine 2], the IC50 is 3900 ± 300 nM at ATP synthase; above 10000 nM on Complex IV; 390 ± 70 nM in the data set on HCT-116 colon carcinoma; 350 ± 50 nM in [1]; 290 ± 30 nM in [2]; 590 ± 120 nM in the data set on MCF-7 breast carcinoma. In addition, the figures for the IC50 (on Complex I; in data set [3]) were above 10000 nM and 410 nM, respectively. In addition, the “cell population with mitochondrial transmembrane potential loss” value in the data set with HSC-2 cells (8 h) is 19%; in the data set on HSC-2 cells (within 1 h after treatment) it was 9%. For the same molecule, the “fold more active than phenyl substituted compound 1” value in data set [4] is 5 fold. Moreover, the “IC50 Complex II activity” value against Complex II is listed as “did not reach 50% up to maximum concentrations studied”.
`Brc1ccc(-c2c3ccc(=[N+]4CCCCC4)cc-3oc3cc(N4CCCCC4)ccc23)cc1` [Rosamine 3, 4-Bromobenzene Rosamine]: the IC50 in the data set on HCT-116 colon carcinoma worked out at 300 ± 80 nM; in data set [1], 190 ± 110 nM; in data set [2], 340 nM; in the data set on MCF-7 breast carcinoma it was 290 ± 40 nM; in data set [3], 280 nM.
For the molecule `Clc1ccc(-c2c3ccc(=[N+]4CCCCC4)cc-3oc3cc(N4CCCCC4)ccc23)cc1` [Rosamine 4, 4-Chlorobenzene Rosamine], the IC50 in the data set with HCT-116 colon carcinoma came out at 220 ± 140 nM; in data set [1] it was 90 ± 10 nM; in data set [2], 250 ± 10 nM; with MCF-7 breast carcinoma, 150 ± 40 nM; in data set [3], 180 nM. This molecule gave a GI50 in [5] (Homo sapiens) of 100 nM. This molecule came in with a Log10GI50 in data set [5] of −7.
As for `c1coc(-c2c3ccc(=[N+]4CCCCC4)cc-3oc3cc(N4CCCCC4)ccc23)c1` [Rosamine 6, Furan Rosamine], the water solubility result in [6] is on record as “readily solubilized in aqueous media”. Besides, the IC50 amounted to 100 ± 30 nM in the data set with HCT-116 colon carcinoma; 90 nM in data set [1]; 310 ± 80 nM in data set [2]; 310 ± 140 nM in the data set on MCF-7 breast carcinoma; 200 nM in [3].
Turning to `Ic1ccc(-c2c3ccc(=[N+]4CCOCC4)cc-3oc3cc(N4CCCCC4)ccc23)cc1` [Rosamine 7, Unsymmetrical 4-Iodophenyl Rosamine], the IC50 with HCT-116 colon carcinoma was 240 ± 70 nM; in data set [1], 220 ± 100 nM; in [2] it was 440 ± 10 nM; with MCF-7 breast carcinoma, 260 ± 70 nM; in data set [3] it was 290 nM.
Consider `c1csc(-c2c3ccc(=[N+]4CCOCC4)cc-3oc3cc(N4CCCCC4)ccc23)c1` [Rosamine 8, Unsymmetrical Thiofuryl Rosamine], for which, in [6], the water solubility entry is on record as “readily solubilized in aqueous media”. Besides, the IC50 was determined as 70 ± 20 nM in the data set with HCT-116 colon carcinoma; 220 ± 110 nM in data set [1]; 530 nM in data set [2]; 170 ± 100 nM in the data set on MCF-7 breast carcinoma; 250 nM in data set [3].
